From ChEMBL document CHEMBL2177016 (J Med Chem, 2012)
Calls of active or inactive are those of the source. No cut-off for these calls is given here.

How the values were obtained:
[1] = biological target: T1, Prostaglandin G/H synthase 2 (Ovis aries) (UniProt P79208); assay: Inhibition of ovine COX2 at 100 uM incubated for 5 mins by colorimetric assay
T1 sequence (whole entry): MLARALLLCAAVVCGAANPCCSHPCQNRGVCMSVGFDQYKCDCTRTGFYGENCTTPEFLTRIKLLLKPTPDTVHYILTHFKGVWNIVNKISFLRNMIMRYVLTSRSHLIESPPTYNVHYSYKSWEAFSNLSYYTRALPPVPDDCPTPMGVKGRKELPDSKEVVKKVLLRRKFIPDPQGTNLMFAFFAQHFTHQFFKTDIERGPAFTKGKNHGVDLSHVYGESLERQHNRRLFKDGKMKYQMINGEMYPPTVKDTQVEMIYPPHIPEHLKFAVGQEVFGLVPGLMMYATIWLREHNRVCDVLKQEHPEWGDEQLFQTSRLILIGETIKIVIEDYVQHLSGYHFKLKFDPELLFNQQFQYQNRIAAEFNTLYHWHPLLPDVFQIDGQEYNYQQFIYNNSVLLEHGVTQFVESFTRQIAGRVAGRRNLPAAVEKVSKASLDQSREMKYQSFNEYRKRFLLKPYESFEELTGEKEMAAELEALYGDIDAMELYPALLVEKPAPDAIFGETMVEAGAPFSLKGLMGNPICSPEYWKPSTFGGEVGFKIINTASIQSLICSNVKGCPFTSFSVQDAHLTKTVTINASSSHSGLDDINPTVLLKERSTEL

[2] = biological target: T2, PROBABLE TRANSMEMBRANE CARBONIC ANHYDRASE (CARBONATE DEHYDRATASE) (CARBONIC DEHYDRATASE) (Mycobacterium tuberculosis, UniProt P96878)
T2 sequence (P96878 whole entry): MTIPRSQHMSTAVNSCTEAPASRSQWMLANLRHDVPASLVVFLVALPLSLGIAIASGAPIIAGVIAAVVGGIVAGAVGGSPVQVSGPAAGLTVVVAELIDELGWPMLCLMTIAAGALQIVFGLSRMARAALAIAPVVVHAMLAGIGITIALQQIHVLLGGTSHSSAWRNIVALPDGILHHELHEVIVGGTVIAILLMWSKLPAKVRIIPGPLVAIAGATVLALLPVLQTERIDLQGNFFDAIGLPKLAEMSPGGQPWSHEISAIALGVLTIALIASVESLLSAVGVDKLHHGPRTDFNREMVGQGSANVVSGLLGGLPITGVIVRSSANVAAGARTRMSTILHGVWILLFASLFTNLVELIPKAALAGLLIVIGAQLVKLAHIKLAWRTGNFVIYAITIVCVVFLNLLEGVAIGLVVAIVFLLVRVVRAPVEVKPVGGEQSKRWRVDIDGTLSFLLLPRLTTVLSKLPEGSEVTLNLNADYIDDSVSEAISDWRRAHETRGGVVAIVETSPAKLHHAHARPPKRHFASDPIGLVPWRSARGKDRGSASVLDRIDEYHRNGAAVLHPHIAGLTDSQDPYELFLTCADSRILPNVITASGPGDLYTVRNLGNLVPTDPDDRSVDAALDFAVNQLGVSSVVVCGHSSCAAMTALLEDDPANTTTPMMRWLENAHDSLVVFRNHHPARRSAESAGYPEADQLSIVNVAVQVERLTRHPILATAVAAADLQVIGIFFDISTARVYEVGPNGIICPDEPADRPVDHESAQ
Description: Inhibition of Mycobacterium tuberculosis recombinant carbonic anhydrase Rv3273 pre-incubated for 15 mins by stopped-flow CO2 hydration method

Carbonic anhydrase 2 = biological target: T3, Carbonic anhydrase 2 (Mycobacterium tuberculosis, UniProt P9WPJ9)
T3 sequence (P9WPJ9 whole entry): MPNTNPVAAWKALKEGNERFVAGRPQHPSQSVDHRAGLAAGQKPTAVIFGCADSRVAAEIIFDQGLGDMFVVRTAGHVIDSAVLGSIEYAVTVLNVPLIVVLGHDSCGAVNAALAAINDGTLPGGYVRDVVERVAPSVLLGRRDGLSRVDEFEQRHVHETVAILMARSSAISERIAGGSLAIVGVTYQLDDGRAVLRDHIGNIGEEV
Description: Inhibition of Mycobacterium tuberculosis recombinant carbonic anhydrase Rv3588c pre-incubated for 15 mins by stopped-flow CO2 hydration method

[3] = biological target: T4, Beta-carbonic anhydrase 1 (Mycobacterium tuberculosis, UniProt P9WPJ7)
T4 sequence (P9WPJ7 whole entry): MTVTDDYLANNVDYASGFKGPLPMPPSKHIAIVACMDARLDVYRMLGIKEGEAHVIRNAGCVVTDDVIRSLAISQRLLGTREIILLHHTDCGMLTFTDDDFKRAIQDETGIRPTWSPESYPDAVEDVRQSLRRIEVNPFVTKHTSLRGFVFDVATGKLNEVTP
Description: Inhibition of Mycobacterium tuberculosis recombinant carbonic anhydrase Rv1284 pre-incubated for 15 mins by stopped-flow CO2 hydration method

Carbonic anhydrase 9 = Carbonic anhydrase 9 (Homo sapiens, UniProt Q16790)
Description: Inhibition of human recombinant CA9 catalytic domain pre-incubated for 15 mins by stopped-flow CO2 hydration method

Carbonic anhydrase 3 = Carbonic anhydrase 3 (Homo sapiens, UniProt P07451)
Sequence of Carbonic anhydrase 3 (P07451 whole entry): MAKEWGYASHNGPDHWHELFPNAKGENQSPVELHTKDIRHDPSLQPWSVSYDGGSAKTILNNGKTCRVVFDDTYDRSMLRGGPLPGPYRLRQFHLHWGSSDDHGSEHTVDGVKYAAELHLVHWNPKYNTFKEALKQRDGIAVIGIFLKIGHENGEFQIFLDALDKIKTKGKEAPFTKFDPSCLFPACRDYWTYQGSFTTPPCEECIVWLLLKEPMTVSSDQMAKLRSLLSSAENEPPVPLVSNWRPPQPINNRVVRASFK
Description: Inhibition of human recombinant full length CA3 pre-incubated for 15 mins by stopped-flow CO2 hydration method

| SMILES | inhibition [1] | Ki [2] | Ki (Carbonic anhydrase 2) | Ki [3] | Ki (Carbonic anhydrase 9) | Ki (Carbonic anhydrase 3) |
| --- | --- | --- | --- | --- | --- | --- |
| NS(=O)(=O)c1ccc(-n2ncc3c2-c2ccc(C(F)(F)F)cc2SC3)cc1 | inactive | 238 nM | 357 nM | 613 nM | 2570 nM | – |
| NS(=O)(=O)c1ccc(-n2ncc3c2-c2cccnc2SC3)cc1 | inactive | 286 nM | 273 nM | 134 nM | 2340 nM | – |
| Cc1ccc(-c2cc(C(F)(F)F)nn2-c2ccc(S(N)(=O)=O)cc2)cc1 [CELECOXIB] | – | 7760 nM | – | – | – | 7.4 µM |
| COc1ccc2c(c1)SCc1cnn(-c3ccc(S(N)(=O)=O)cc3)c1-2 | inactive | 750 nM | 610 nM | 870 nM | 2180 nM | – |
| Cc1ccc2c(n1)SCc1cnn(-c3ccc(S(N)(=O)=O)cc3)c1-2 | inactive | 241 nM | 144 nM | 115 nM | – | – |
| NS(=O)(=O)c1ccc(-n2ncc3c2-c2ccc(Cl)cc2SC3)cc1 | inactive | 316 nM | 235 nM | 412 nM | 1840 nM | – |
